Results reported in US12540120B2, “Herbicidal compounds” (SYNGENTA CROP PROTECTION AG, priority 2019, dated 2026).

How the values were obtained:
Assay type in all cases: in vivo
[1] = test system: Amaranthus retoflexus (AMARE); test: B6 Pre-Emergence Efficacy—Test 3; conditions: pre-emergence application, 250 g/ha, evaluated after 13 days (Test 3)
Protocol: (§1) B6 Pre-Emergence Efficacy—Test 3 Seeds of a variety of test species were sown in standard soil in pots: Amaranthus retoflexus (AMARE), Setaria faberi (SETFA), Echinochloa crus-galli (ECHCG), Ipomoea hederacea (IPOHE), Zea Mays (ZEAMX), Abutilon theophrasti (ABUTH). After cultivation for one day (pre-emergence) under controlled conditions in a glasshouse (at 24/16° C., day/night; 14 hours light; 65% humidity), the plants were sprayed with an aqueous spray solution derived from the formulation of the technical active ingredient in acetone/water (50:50) solution containing 0.5% Tween 20 (polyoxyethelyene sorbitan monolaurate, CAS RN 9005-64-5). Compounds are applied at 250 g/ha. The test plants were then grown in a glasshouse under controlled conditions (at 24/16° C., day/night; 14 hours light; 65% humidity) and watered twice daily. After 13 days, the test is evaluated for the percentage damage caused to the plant. The biological activities are assessed on a five point scale (5=80-100%; 4=60-79%; 3=40-59%; 2=20-39%; 1=0-19%). A blank value in the table is indicative that the compound was not tested on that species.

[2] = test system: Echinochloa crus-galli (ECHCG); test: B6 Pre-Emergence Efficacy—Test 3; conditions: pre-emergence application, 250 g/ha, evaluated after 13 days (Test 3)
Protocol: as §1

[3] = test system: Setaria faberi (SETFA); test: B6 Pre-Emergence Efficacy—Test 3; conditions: pre-emergence application, 250 g/ha, evaluated after 13 days (Test 3)
Protocol: as §1

[4] = test system: Ipomoea hederacea (IPOHE); test: B6 Pre-Emergence Efficacy—Test 3; conditions: pre-emergence application, 250 g/ha, evaluated after 13 days (Test 3)
Protocol: as §1

[5] = test system: Zea Mays (ZEAMX); test: B6 Pre-Emergence Efficacy—Test 3; conditions: pre-emergence application, 250 g/ha, evaluated after 13 days (Test 3)
Protocol: as §1

[6] = test system: Abutilon theophrasti (ABUTH); test: B6 Pre-Emergence Efficacy—Test 3; conditions: pre-emergence application, 250 g/ha, evaluated after 13 days (Test 3)
Protocol: as §1

[7] = test system: Amaranthus retoflexus (AMARE); test: B3 Post-Emergence Efficacy—Test 3; conditions: post-emergence application, 250 g/ha, evaluated after 13 days (Test 3)
Protocol: (§2) B3 Post-Emergence Efficacy—Test 3 Seeds of a variety of test species are sown in standard soil in pots:—Amaranthus retoflexus (AMARE), Setaria faberi (SETFA), Echinochloa crus-galli (ECHCG), Ipomoea hederacea (IPOHE), Zea Mays (ZEAMX), Abutilon theophrasti (ABUTH). After 8 days cultivation (post-emergence) under controlled conditions in a glasshouse (at 24/16° C., day/night; 14 hours light; 65% humidity), the plants are sprayed with an aqueous spray solution derived from the formulation of the technical active ingredient in acetone/water (50:50) solution containing 0.5% Tween 20 (polyoxyethylene sorbitan monolaurate, CAS RN 9005-64-5). Compounds are applied at 250 g/ha. The test plants are then grown in a glasshouse under controlled conditions in a glasshouse (at 24/16° C., day/night; 14 hours light; 65% humidity) and watered twice daily. After 13 days, the test is evaluated for the percentage damage caused to the plant. The biological activities are assessed on a five point scale (5=80-100%; 4=60-79%; 3=40-59%; 2=20-39%; 1=0-19%). A blank value in the table is indicative that the compound was not tested on that species.

[8] = test system: Echinochloa crus-galli (ECHCG); test: B3 Post-Emergence Efficacy—Test 3; conditions: post-emergence application, 250 g/ha, evaluated after 13 days (Test 3)
Protocol: as §2

[9] = test system: Setaria faberi (SETFA); test: B3 Post-Emergence Efficacy—Test 3; conditions: post-emergence application, 250 g/ha, evaluated after 13 days (Test 3)
Protocol: as §2

[10] = test system: Ipomoea hederacea (IPOHE); test: B3 Post-Emergence Efficacy—Test 3; conditions: post-emergence application, 250 g/ha, evaluated after 13 days (Test 3)
Protocol: as §2

[11] = test system: Zea Mays (ZEAMX); test: B3 Post-Emergence Efficacy—Test 3; conditions: post-emergence application, 250 g/ha, evaluated after 13 days (Test 3)
Protocol: as §2

[12] = test system: Abutilon theophrasti (ABUTH); test: B3 Post-Emergence Efficacy—Test 3; conditions: post-emergence application, 250 g/ha, evaluated after 13 days (Test 3)
Protocol: as §2

[13] = test system: Lolium perenne (LOLPE); test: B5 Pre-Emergence Efficacy—Test 2; design: key: 5-point scale: 5=80-100%, 4=60-79%, 3=40-59%, 2=20-39%, 1=0-19% damage; conditions: 250 g/ha, evaluated after 13 days
Procedure, shortened: (§3)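 Pre-emergence glasshouse test: seeds sown in standard soil, sprayed one day later with compound at 250 g/ha in acetone/water (50:50) with 0.5% Tween 20. Grown at 24/16° C day/night, 14 h light, 65% humidity; percentage damage scored after 13 days on a five-point scale (5=80-100% to 1=0-19%).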

[14] = test system: Echinochloa crus-galli (ECHCG); test: B5 Pre-Emergence Efficacy—Test 2; design: key: 5-point scale: 5=80-100%, 4=60-79%, 3=40-59%, 2=20-39%, 1=0-19% damage; conditions: 250 g/ha, evaluated after 13 days
Procedure, shortened: as §3

[15] = test system: Setaria faberi (SETFA); test: B5 Pre-Emergence Efficacy—Test 2; design: key: 5-point scale: 5=80-100%, 4=60-79%, 3=40-59%, 2=20-39%, 1=0-19% damage; conditions: 250 g/ha, evaluated after 13 days
Procedure, shortened: as §3

[16] = test system: Ipomoea hederacea (IPOHE); test: B5 Pre-Emergence Efficacy—Test 2; design: key: 5-point scale: 5=80-100%, 4=60-79%, 3=40-59%, 2=20-39%, 1=0-19% damage; conditions: 250 g/ha, evaluated after 13 days
Procedure, shortened: as §3

[17] = test system: Amaranthus retoflexus (AMARE); test: B5 Pre-Emergence Efficacy—Test 2; conditions: 250 g/ha, evaluated after 13 days
Procedure, shortened: as §3

[18] = test system: Solanum nigrum (SOLNI); test: B5 Pre-Emergence Efficacy—Test 2; conditions: 250 g/ha, evaluated after 13 days
Procedure, shortened: as §3

[19] = test system: Lolium perenne (LOLPE); test: B2 Post-Emergence Efficacy—Test 2; conditions: post-emergence application, 250 g/ha, evaluated after 13 days (Test 2)
Procedure, shortened: (§4)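 Damage scores (five-point scale, 5=80-100%, 4=60-79%, 3=40-59%, 2=20-39%, 1=0-19%) reflect percentage injury 13 days after treatment. Plants received 250 g/ha as a post-emergence spray at 8 days after sowing.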

[20] = test system: Amaranthus retoflexus (AMARE); test: B2 Post-Emergence Efficacy—Test 2; conditions: post-emergence application, 250 g/ha, evaluated after 13 days (Test 2)
Procedure, shortened: as §4

[21] = test system: Echinochloa crus-galli (ECHCG); test: B2 Post-Emergence Efficacy—Test 2; conditions: post-emergence application, 250 g/ha, evaluated after 13 days (Test 2)
Procedure, shortened: as §4

[22] = test system: Solanum nigrum (SOLNI); test: B2 Post-Emergence Efficacy—Test 2; conditions: post-emergence application, 250 g/ha, evaluated after 13 days (Test 2)
Procedure, shortened: as §4

[23] = test system: Setaria faberi (SETFA); test: B2 Post-Emergence Efficacy—Test 2; conditions: post-emergence application, 250 g/ha, evaluated after 13 days (Test 2)
Procedure, shortened: as §4

[24] = test system: Ipomoea hederacea (IPOHE); test: B2 Post-Emergence Efficacy—Test 2; conditions: post-emergence application, 250 g/ha, evaluated after 13 days (Test 2)
Procedure, shortened: as §4

| SMILES | percentage damage caused to the plant, five point scale, AMARE [1] | percentage damage caused to the plant, five point scale, ECHCG [2] | percentage damage caused to the plant, five point scale, SETFA [3] | percentage damage caused to the plant, five point scale, IPOHE [4] | percentage damage caused to the plant, five point scale, ZEAMX [5] | percentage damage caused to the plant, five point scale, ABUTH [6] | percentage damage caused to the plant, five point scale, AMARE [7] | percentage damage caused to the plant, five point scale, SETFA [9] | percentage damage caused to the plant, five point scale, IPOHE [10] | percentage damage caused to the plant, five point scale, ZEAMX [11] | percentage damage caused to the plant, five point scale, ABUTH [12] | also measured |
| --- | --- | --- | --- | --- | --- | --- | --- | --- | --- | --- | --- | --- |
| Cc1nn(C)c(=O)c(-c2c(F)ccc(Cl)c2CCc2ccc(C3CCC(C)O3)cc2)c1O (stereo not shown) [Compound A-1.380] | 5 (5=80-100%) | 0 | 1 (1=0-19%) | 4 (4=60-79%) | 2 (2=20-39%) | 4 (4=60-79%) | 4 (4=60-79%) | 3 (3=40-59%) | 3 (3=40-59%) | 2 (2=20-39%) | 3 (3=40-59%) | percentage damage caused to the plant, five point scale, ECHCG [8]: 1 (1=0-19%) |
| Cc1ccc(-c2ccc(CCc3c(Cl)ccc(F)c3-c3c(O)c(C)nn(C)c3=O)cc2)o1 [Compound A-1.381] | 3 (3=40-59%) | 0 | 0 | 3 (3=40-59%) | 1 (1=0-19%) | 1 (1=0-19%) | 4 (4=60-79%) | 2 (2=20-39%) | 4 (4=60-79%) | 1 (1=0-19%) | 3 (3=40-59%) | percentage damage caused to the plant, five point scale, ECHCG [8]: 0 |
| CNS(=O)(=O)c1ccc(CCc2c(Cl)ccc(F)c2-c2c(O)c(C)nn(C)c2=O)cc1 [Compound A-1.390] | 5 (5=80-100%) | – | 5 (5=80-100%) | 5 (5=80-100%) | 1 (1=0-19%) | 5 (5=80-100%) | 5 (5=80-100%) | 5 (5=80-100%) | 4 (4=60-79%) | 1 (1=0-19%) | 4 (4=60-79%) | – |
| Cc1nn(C)c(=O)c(-c2c(F)ccc(Cl)c2CCc2ccc(S(N)(=O)=O)cc2)c1O [Compound A-1.391] | 5 (5=80-100%) | – | 5 (5=80-100%) | 2 (2=20-39%) | 0 | 2 (2=20-39%) | 4 (4=60-79%) | 4 (4=60-79%) | 3 (3=40-59%) | 1 (1=0-19%) | 2 (2=20-39%) | – |
| Cc1nn(C)c(=O)c(-c2c(F)ccc(Cl)c2CCc2ccc(C(N)=O)cc2)c1O [Compound A-1.392] | 5 (5=80-100%) | 5 (5=80-100%) | 5 (5=80-100%) | 5 (5=80-100%) | 2 (2=20-39%) | 5 (5=80-100%) | 5 (5=80-100%) | 5 (5=80-100%) | 3 (3=40-59%) | 2 (2=20-39%) | 4 (4=60-79%) | – |
| Cc1nn(C)c(=O)c(-c2c(F)ccc(Cl)c2/C=C/c2ccc(C#N)cc2)c1OC(=O)C(C)C [Compound A-4.036, [5-[3-Chloro-2-[(E)-2-(4-cyanophenyl)vinyl]-6-fluoro-phenyl]-1,3-dimethyl-6-oxo-pyridazin-4-yl] 2-methylpropanoate] | – | – | – | – | – | – | – | – | – | – | – | Control of weed species after pre-emergence application, LOLPE (percentage damage, five point scale) [13]: 1 (1=0-19%); Control of weed species after pre-emergence application, ECHCG (percentage damage, five point scale) [14]: 1 (1=0-19%); Control of weed species after pre-emergence application, SETFA (percentage damage, five point scale) [15]: 0; Control of weed species after pre-emergence application, IPOHE (percentage damage, five point scale) [16]: 3 (3=40-59%); Control of weed species after pre-emergence application, AMARE (percentage damage, five point scale) [17]: 2 (2=20-39%); Control of weed species after pre-emergence application, SOLNI (percentage damage, five point scale) [18]: 5 (5=80-100%); percentage damage caused to the plant, five point scale, LOLPE [19]: 3 (3=40-59%); percentage damage caused to the plant, five point scale, AMARE [20]: 2 (2=20-39%); percentage damage caused to the plant, five point scale, ECHCG [21]: 3 (3=40-59%); percentage damage caused to the plant, five point scale, SOLNI [22]: 5 (5=80-100%); percentage damage caused to the plant, five point scale, SETFA [23]: 1 (1=0-19%); percentage damage caused to the plant, five point scale, IPOHE [24]: 4 (4=60-79%) |
| Cc1nn(C)c(=O)c(-c2c(F)ccc(Cl)c2/C=C/c2ccc(C3CC3)cc2)c1OC(=O)C(C)C [Compound A-4.038, [5-[3-chloro-2-[(E)-2-(4-cyclopropylphenyl)vinyl]-6-fluoro-phenyl]-1,3-dimethyl-6-oxo-pyridazin-4-yl] 2-methylpropanoate] | – | – | – | – | – | – | – | – | – | – | – | Control of weed species after pre-emergence application, LOLPE (percentage damage, five point scale) [13]: 0; Control of weed species after pre-emergence application, ECHCG (percentage damage, five point scale) [14]: 0; Control of weed species after pre-emergence application, SETFA (percentage damage, five point scale) [15]: 0; Control of weed species after pre-emergence application, IPOHE (percentage damage, five point scale) [16]: 0; Control of weed species after pre-emergence application, AMARE (percentage damage, five point scale) [17]: 2 (2=20-39%); Control of weed species after pre-emergence application, SOLNI (percentage damage, five point scale) [18]: 1 (1=0-19%); percentage damage caused to the plant, five point scale, LOLPE [19]: 1 (1=0-19%); percentage damage caused to the plant, five point scale, AMARE [20]: 1 (1=0-19%); percentage damage caused to the plant, five point scale, ECHCG [21]: 1 (1=0-19%); percentage damage caused to the plant, five point scale, SOLNI [22]: 5 (5=80-100%); percentage damage caused to the plant, five point scale, SETFA [23]: 0; percentage damage caused to the plant, five point scale, IPOHE [24]: 2 (2=20-39%) |
